Reference: publication PMC8066102, “Metabolic Profiles of New Unsymmetrical Bisacridine Antitumor Agents in Electrochemical and Enzymatic Noncellular Systems and in Tumor Cells” (Pharmaceuticals, 2021)

Experiments:
Type in all cases: in vitro ADME
UGT2B7 = target: T1, UGT2B7 (Homo sapiens, UniProt P16662); experiment: Modulation of UGT2B7 activity (epirubicin glucuronidation); details: epirubicin substrate
T1 construct: purchased Corning, NY, USA (through DIAG-MED, Poland); host or cells: baculovirus-insect cells (Supersomes)
T1 sequence (P16662 24-529): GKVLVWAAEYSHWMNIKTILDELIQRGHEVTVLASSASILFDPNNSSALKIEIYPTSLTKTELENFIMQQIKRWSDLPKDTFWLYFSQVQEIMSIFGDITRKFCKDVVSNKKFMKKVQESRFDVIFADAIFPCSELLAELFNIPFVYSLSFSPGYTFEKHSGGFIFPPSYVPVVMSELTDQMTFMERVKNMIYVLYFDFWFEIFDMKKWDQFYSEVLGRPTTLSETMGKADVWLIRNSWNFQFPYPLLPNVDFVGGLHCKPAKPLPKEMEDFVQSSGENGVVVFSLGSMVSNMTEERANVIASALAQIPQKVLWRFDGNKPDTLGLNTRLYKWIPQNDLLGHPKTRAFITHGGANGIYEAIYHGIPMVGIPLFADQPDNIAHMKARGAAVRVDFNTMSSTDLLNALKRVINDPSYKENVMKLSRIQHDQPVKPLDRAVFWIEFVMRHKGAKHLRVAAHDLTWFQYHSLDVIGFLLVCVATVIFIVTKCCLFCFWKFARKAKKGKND
Method: (§1) Isoenzyme activity was studied by the rate measurement of β-hydroxylation of testosterone (specific substrate for P4503A4) and of glucuronidation of specific substrates, namely, SN-38 (UGT1A1), EPI (UGT2B7),) and TFK (UGT2B15). All substrate and drug solutions were prepared as 10 mM stock solutions in DMSO and were diluted in […] (pH 7.4). The mixture containing isoenzymes P4503A4/UGT (0.5 mg/mL), probe substrate (0.1 mM), cofactor 2 mM NADPH/5 mM UDPGA and the increasing concentrations of tested UA (0, 0.01, 0.02 and 0.05 mM) was incubated in the reaction buffer containing (i) for P4503A4 0.1 M HEPES, 88 mM MgCl2 and (ii) for UGT 0.1 M HEPES, 88 mM MgCl2, 25 μg/mL alamethicin at 37 °C for 30 min and were terminated by adding 8.75 µL of 0.1 M HCl. The samples were placed in ice for 10 min and centrifuged (10 min, 13,400 rpm). Supernatant fractions were analyzed by HPLC. For more accurate investigation of P4503A4 inhibition by C-2045 and C-2053 the β-hydroxylation rate was measured at various concentrations of testosterone: 0.02, 0.05, 0.1 and 0.2 mM. The inhibitor (UA) concentrations were 0, 0.001, 0.005 and 0.01 mM, whereas the incubation time 30 min and concentration of P4503A4 (0.5 mg/mL).

UGT 1A6 = target: T2, UGT 1A6 (Homo sapiens, UniProt P19224); experiment: Glucuronidation with recombinant UGT1A6; parameters: key: −: the lack of UGT activity; +: the significant UGT activity; details: 0.05 mM compound, 1 mg/mL UGT, 5 mM UDPGA
T2 construct: His tag; purchased Corning, NY, USA (through DIAG-MED, Poland); host or cells: baculovirus-insect cells (Supersomes); Results say Sf9 cells
T2 sequence (P19224 27-532): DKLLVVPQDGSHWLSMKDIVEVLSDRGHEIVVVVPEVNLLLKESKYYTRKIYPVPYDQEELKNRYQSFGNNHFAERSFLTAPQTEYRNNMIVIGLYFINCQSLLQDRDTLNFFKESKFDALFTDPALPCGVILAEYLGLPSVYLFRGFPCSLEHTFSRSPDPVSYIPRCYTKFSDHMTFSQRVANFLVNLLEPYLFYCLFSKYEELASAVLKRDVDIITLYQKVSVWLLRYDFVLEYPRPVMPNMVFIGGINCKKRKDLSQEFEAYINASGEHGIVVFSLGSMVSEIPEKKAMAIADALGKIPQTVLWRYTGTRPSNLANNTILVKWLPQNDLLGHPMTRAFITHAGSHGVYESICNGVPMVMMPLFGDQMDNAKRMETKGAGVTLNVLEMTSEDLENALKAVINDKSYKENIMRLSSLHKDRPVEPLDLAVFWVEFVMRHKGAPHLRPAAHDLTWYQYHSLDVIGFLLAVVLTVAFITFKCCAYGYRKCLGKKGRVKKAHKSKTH
Method: Recombinant UGT isoform protein (1 mg/mL) was assayed for activity toward tested UAs as follows. The proteins were incubated in a buffer containing 0.1 M HEPES (pH 7.4), 8 mM MgCl2 and alamethicin (25 μg/mL) with either 0.05 mM substrate in total volume 70 µL (alamethicin was added to permeabilize the membrane). Substrates were also in buffer HEPES, pH 7.4. Reactions were started by the addition of UDPGA (5 mM) and were incubated for specified time at 37 °C. The reactions were stopped by the addition of 8.75 µL of 1 M HCl, followed by centrifugation at 13400 rpm for 10 min to pellet the denatured protein. The supernatant fractions were used for HPLC analysis. Control reactions omitting substrate were run with each assay. All incubations were performed in two repetitions.

UGT2B15 = target: T3, UGT2B15 (Homo sapiens, UniProt P54855); experiment: Modulation of UGT2B15 activity (TFK glucuronidation); details: UGT2B15 isoenzyme preparation, pH 7.4, probe TFK, TFK substrate
T3 construct: purchased Corning, NY, USA (through DIAG-MED, Poland); host or cells: baculovirus-insect cells (Supersomes)
T3 sequence (P54855 24-530): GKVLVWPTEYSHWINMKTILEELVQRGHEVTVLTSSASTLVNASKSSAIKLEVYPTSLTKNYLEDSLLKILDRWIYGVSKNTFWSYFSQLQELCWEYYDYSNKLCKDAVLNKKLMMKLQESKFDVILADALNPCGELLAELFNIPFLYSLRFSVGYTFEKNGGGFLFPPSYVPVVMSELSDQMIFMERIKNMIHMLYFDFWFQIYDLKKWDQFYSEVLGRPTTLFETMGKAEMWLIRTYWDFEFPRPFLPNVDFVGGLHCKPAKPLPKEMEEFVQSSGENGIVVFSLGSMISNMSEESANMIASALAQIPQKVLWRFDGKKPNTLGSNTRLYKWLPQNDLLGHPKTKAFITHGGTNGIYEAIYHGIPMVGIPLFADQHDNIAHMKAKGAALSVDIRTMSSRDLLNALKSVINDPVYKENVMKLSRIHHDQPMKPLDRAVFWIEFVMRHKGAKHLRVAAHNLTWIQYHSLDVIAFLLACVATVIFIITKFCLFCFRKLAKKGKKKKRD
Method: as §1

P4503A4 = target: T4, P4503A4 (Homo sapiens, UniProt P08684); experiment: Modulation of P4503A4 activity (testosterone β-hydroxylation); details: for mechanism of P4503A4 inhibition: testosterone 0.02-0.2 mM, inhibitor 0-0.01 mM, nonlinear regression; for decrease in activity of P4503A4: testosterone β-hydroxylation, all concentrations (0.01, 0.02 and 0.05 mM), 30 min
T4 construct: purchased Cypex, Dundee, Scotland, UK (through Tebu-Bio); host or cells: Escherichia coli (Bactosomes)
T4 sequence (P08684 whole entry): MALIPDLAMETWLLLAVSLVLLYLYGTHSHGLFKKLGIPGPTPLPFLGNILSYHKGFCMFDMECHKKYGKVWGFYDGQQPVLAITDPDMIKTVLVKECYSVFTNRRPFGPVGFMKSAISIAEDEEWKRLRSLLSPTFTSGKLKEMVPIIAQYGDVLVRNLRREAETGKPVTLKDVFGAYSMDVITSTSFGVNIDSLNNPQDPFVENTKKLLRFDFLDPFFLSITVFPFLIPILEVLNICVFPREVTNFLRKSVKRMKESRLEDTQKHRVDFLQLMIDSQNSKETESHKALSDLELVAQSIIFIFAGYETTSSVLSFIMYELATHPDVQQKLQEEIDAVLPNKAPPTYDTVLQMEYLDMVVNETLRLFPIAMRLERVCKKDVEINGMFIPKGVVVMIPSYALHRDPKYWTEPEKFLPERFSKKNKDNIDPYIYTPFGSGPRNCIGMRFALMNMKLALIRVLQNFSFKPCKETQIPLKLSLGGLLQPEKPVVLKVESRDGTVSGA
Method: as §1

| decrease in the activity of UGT2B7 (UGT2B7; 0.01 mM and 0.02 mM compound) | inhibition at 30 min, 0.05 mM (UGT2B7; human, UGT2B7 isoenzyme preparation, pH 7.4, probe epirubicin (EPI), 0.05 mM compound) | Glucuronidation potency UGT 1A6 (UGT 1A6) | inhibition at 30 min, 0.05 mM (UGT2B15; highest concentration) | inhibition at 30 min (UGT2B15; lowest concentrations) | mechanism of P4503A4 inhibition (P4503A4) | decrease in activity of P4503A4 (P4503A4) | Structure (SMILES) |
| --- | --- | --- | --- | --- | --- | --- | --- |
| 60% | 90% | − | 80% | ~30% |  |  | CN(CCCNc1c2ccccc2nc2cccc([N+](=O)[O-])c12)CCCNc1ccc2ncn3c4ccccc4c(=O)c1c23 [C-2028] |
|  |  |  |  |  | non-competitive | over 90% | Cc1ccc([N+](=O)[O-])c2c(NCCCN(C)CCCNc3ccc4ncn5c6ccc(O)cc6c(=O)c3c45)c3ccccc3nc12 [C-2045] |
|  |  | − |  |  | competitive | above 50% | Cc1ccc([N+](=O)[O-])c2c(NCCCN(C)CCCNc3ccc4ncn5c6ccccc6c(=O)c3c45)c3ccccc3nc12 [C-2053] |
